Tests used:
Aβ25-35 peptide = Aβ25-35 peptide (Homo sapiens, UniProt P05067); test: Antifibrillogenic activity, thioflavine T (ThT) assay with Aβ25-35 peptide; format: biochemical; details: compound 30 μM, Aβ25-35 peptide 100 μM, 50 μM phosphate buffer pH 5, 25° C., 24 hours; ThT 47 μM; ex 420 nm, em 490 nm; less fluorescence = less amyloid; read-out: ThT fluorescence (% of control)
Experimental: The compounds of the present invention are also endowed with antifibrillogenic activity. When Aβ peptides are incubated with the compounds, a reduction in the formation of amyloid fibrils is observed. The amount of amyloid that results from peptide aggregation can be evaluated using the thioflavine T (ThT) assay as reported in the literature by Naiki et al., Analytical Biochemistry 1989, vol. 177, p. 244 and by H. LeVine III, Protein Science 1993, vol.2, p. 404. Compounds are incubated at a concentration of 30 μM, in 50 μM phosphate buffer pH 5 at 25° C. during 24 hours, with 100 μM peptide. The incubated samples are then diluted with sodium citrate buffer pH 5 containing 47 μM ThT. Fluorescence was measured with excitation at 420 nm and emission at 490 nm in a Kontron fluorescence spectrophotometer and the values were averaged after subtracting the background fluorescence of ThT. The less the fluorescence the less the amount of amyloid formed during the incubation period.
The following data obtained with the Aβ25-35 peptide are reported as examples.

Aβ25-35 fibrils = Aβ25-35 fibrils (Homo sapiens, UniProt P05067); test: Binding of anthracyclinones and anthracyclines to Aβ25-35 fibrils (fluorescent detection of bound compound); details: 10% dimethylsulfoxide in distilled water, 60 minutes, room temperature, rectangular hyperbola (binding isotherm), read-out: EC50 (affinity of the test compounds for the Aβ fibrils)
Experimental: Binding of anthracyclinones and anthracyclines to Aβ fibrils
Fibrils from Aβ25-35 peptide are suspended in a solution of 10% dimethylsulfoxide in distilled water containing the test compound at various concentrations and incubated at room temperature for 60 minutes. After incubation, the samples are centrifuged at 15000 g for 10 minutes at room temperature and the supernatant withdrawn. Fibril pellets are washed three times with 0.3 ml of 10% DMSO in distilled water, dissolved in ethanol and the bound compound is quantified by fluorescent detection. EC50 are then calculated using rectangular hyperbola (binding isotherm) equation and represents the affinity of the test compounds for the Aβ fibrils.

Aβ1-40 fibrils = test: Binding to Aβ1-40 fibrils (filtration, HPLC quantification of bound compound); details: 3% dimethylsulfoxide in water, 15 minutes, room temperature, Hill equation
Experimental: The precipitated fibrils are centrifuged, washed with distilled water, centrifuged again and resuspended in distilled water at a concentration of […]. The fibril suspension is sonocated for one minute and freezed at -20° C. in aliquots until use. […] The resulting suspension is incubated at room temperature for 15 minutes. After incubation, the suspension is loaded onto a Millipore ultrafree MC filter (0.22 μm pore retention) and centrifuged for 5 minutes at 4° C. […] The amount of bound compound is quantified by HPLC. The aspecific binding of the compounds to the filter is evaluated by processing samples of the compounds, as previously described, in the absence of fibrils. The amount of compound bound to the filter is subtracted from the total binding value obtained in the presence of fibrils. Binding parameters were estimated by computerised non-linear regression analysis according to the Hill equation. Data are expressed as nanomoles of compound bound per mg of peptide monomer (Bmax)

remaining activity at 30 µM (Aβ25-35 peptide) [%]	EC50 (Aβ25-35 fibrils) [µM]	Bmax (nanomoles of compound bound per mg of peptide monomer) (Aβ1-40 fibrils) [nmoles/mg Aβ1-40]	Structure (SMILES)
20.6	–	–	COc1cccc2c1C(=O)c1c(O)c3c(c(O)c1C2=O)C[C@@](O)(C(=O)CO)C[C@@H]3O[C@H]1C[C@H](NC(=O)C(F)(F)F)[C@H](I)[C@H](C)O1 [Compound A1, N-trifluoroacetyl-4'-iododoxorubicin]
22.2	–	–	COc1cccc2c1C(=O)c1c(O)c3c(c(O)c1C2=O)C[C@@](O)(C(=O)CN1CCN(C(=O)C(F)(F)F)CC1)C[C@@H]3O [Compound A2, 14-(4-trifluoroacetylpiperazin-1-yl)-daunomycinone]
23	8.16 ± 1.32	–	COc1cccc2c1C(=O)c1c(O)c3c(c(O)c1C2=O)C[C@@](O)(C(=O)CN1CCN(S(=O)(=O)C(F)(F)F)CC1)C[C@@H]3O [Compound A3, 14-(4-trifluoromethanesulphonylpiperazin-1-yl)-daunomycinone]
22.3	–	–	COc1cccc2c1C(=O)c1c(O)c3c(c(O)c1C2=O)C[C@@](O)(C(=O)CN1CCN(c2cccc(C(F)(F)F)c2)CC1)C[C@@H]3O [Compound A4, 14-[4-(3-trifluoromethylphenyl)piperazin-1-yl]-daunomycinone]
23.1	–	223.1	CCN(CC(=O)[C@]1(O)Cc2c(O)c3c(c(O)c2[C@@H](O)C1)C(=O)c1c(OC)cccc1C3=O)Cc1cc(C(F)(F)F)cc(C(F)(F)F)c1 [Compound A5, 14-[N-ethyl-N-(3,5-bis-trifluoromethylphenyl)methyl]daunomycinone]
35	–	–	COc1cccc2c1C(=O)c1c(O)c3c(c(O)c1C2=O)C[C@@](O)(C(=O)CN(Cc1ccccc1)CC(F)(F)F)C[C@@H]3O [Compound A6, 14-[N-benzyl-N-(2,2,2-trifluoroethyl)]amino-daunomycinone]
33.2	–	–	COc1cccc2c1C(=O)c1c(O)c3c(c(O)c1C2=O)C[C@@](O)(C(=O)CN1CC=CCC1)C[C@@H]3O[C@H]1C[C@H](NC(=O)C(F)(F)F)[C@H](I)[C@H](C)O1 [Compound A7, 14-(1,2,3,6-tetrahydropyridin-1-yl)-4'-deoxy-4'-iodo-3'-N-trifluoroacetyl daunorubicin]
41	52 ± 10.7	122.2	COc1cccc2c1C(=O)c1c(O)c3c(c(O)c1C2=O)C[C@@](O)(C(=O)CO)C[C@@H]3O[C@H]1C[C@H](N)[C@H](I)[C@H](C)O1 [IDOX, iododoxorubicin, reference compound]
